Consider 37 molecules from patent US11623931B2, “Bicyclic compounds for diagnosis and therapy” (AC IMMUNE SA, priority 2016, dated 2023).

Experiment [1] deals with T1, aSyn aggregates on PD sections (Homo sapiens, UniProt P37840).
T1 construct: 20 μm frozen sections from amygdala were purchased from an external provider (Tissue Solutions Ltd.); tissue Tissue Solutions Ltd; host or cells: human PD amygdala, frozen sections, Braak stage V-VI
As to the kind of experiment: Assay 1 (fluorescence based assay): direct staining of human Parkinson's disease brain sections. As to conditions: staining intensity; compound 100 μM, frozen amygdala sections, PD Braak stage V-VI. The experiment is classed as binding. Set-up: key: − (No); +/− (very weak); + (weak); ++ (good); +++ (strong). From the text: Assay 1 (Fluorescence Based Assay):
Direct Staining of Compounds of this Invention to Human Parkinson's Disease Brain Sections
20 μm frozen sections from amygdala were purchased from an external provider (Tissue Solutions Ltd.). Donors were diagnosed with PD, Braak stage V-VI (Braak et al., Neurobiol. Aging, 2003, 24, 197-211) and thus with confirmed aSyn pathology. PD donors, Braak stage V-VI with mixed pathology, containing aSyn aggregates as well as Aβ plaques, were also used in this assay. Sections were kept at −80° C. until start of the experiment.
Brain sections were encircled with pap pen liquid blocker to reduce the volume of solution for the different incubations. Sections were fixed for 15 min at 4° C. with 4% paraformaldehyde and washed three times for 5 minutes with PBS (phosphate buffered saline) at room temperature. Test compounds were incubated on the sections at 100 μM in 50% ethanol in water for 30 min at room temperature, followed by three washes of 5 minutes with PBS. Sections were then saturated and permeabilized in blocking buffer (PBS, 10% NGS, 0.25% Triton) for 1 hour at room temperature and then incubated for 2 hours at room temperature with the primary antibodies against aSyn: aSyn-211 (SantaCruz Biotechnology sc-12767) or aSyn-pS129 (Abcam AB51253), and primary antibody against AR, 4G8, (Covance, SIG-39220). All primary antibodies diluted 1/250 in PBS, 5% NGS, 0.25% Triton. After three washes in PBS, the sections were incubated for 30 minutes at room temperature with a secondary anti-mouse antibody labeled with AlexaFluor555 (Invitrogen A21422) or anti-rabbit antibody labeled with AlexaFluor555 (Invitrogen A21428) and further washed three times in PBS. To reduce auto-fluorescence of the tissue, the sections were incubated in a solution of 0.1% Sudan Black (Sigma 199664) in 70% ethanol for 15 min at room temperature, followed by four washes with PBS and mounted under cover slips using ProLong Gold Antifade reagent (Invitrogen P36930).
Sections were analyzed on the Nikon Eclipse Ti microscope to detect staining and imaged using Nikon DS-Fi2 camera and NIS-Element AR4.13.1 software.

In experiment [2] the test system is Aβ plaques on AD sections. Briefly: Assay 1 (fluorescence based assay): direct staining of human Alzheimer's disease brain sections. Format: binding. Also noted: key: − (No); +/− (very weak); + (weak); ++ (good); +++ (strong). The settings on record: staining intensity; compound 100 μM, frozen amygdala sections, AD Braak stage V-VI. As to the method:
Direct Staining of Compounds of this Invention to Human Alzheimer's Disease Brain Sections 20 μm frozen sections from amygdala were purchased from an external provider (Tissue Solutions Ltd.). Donors were diagnosed with AD, Braak stage V-VI (Braak et al., Neurobiol. Aging, 1995, 16, 271-284) and thus with confirmed Aβ pathology. Sections were kept at −80° C. until start of the experiment. Brain sections were encircled with pap pen liquid blocker to reduce the volume of solution for the different incubations. Sections were fixed for 15 min at 4° C. with 4% paraformaldehyde and washed three times for 5 minutes with PBS at room temperature. Test compounds were incubated on the sections at 100 μM in 50% ethanol in water for 30 min at room temperature, followed by three washes of 5 minutes with PBS. Sections were then saturated and permeabilized in blocking buffer (PBS, 10% NGS, 0.25% Triton) for 1 hour at room temperature and then incubated for 2 hours at room temperature with the primary antibodies against AR, 4G8, (Covance, SIG-39220), diluted 1/250 in PBS, 5% NGS, and 0.25% Triton. After three washes in PBS, the sections were incubated for 30 minutes at room temperature with a secondary anti-mouse antibody labeled with AlexaFluor555 (Invitrogen A21422) and further washed three times in PBS. To reduce auto-fluorescence of the tissue, the sections were incubated in a solution of 0.1% Sudan Black (Sigma 199664) in 70% ethanol for 15 min at room temperature, followed by four washes with PBS and mounted under cover slips using ProLong Gold Antifade reagent (Invitrogen P36930). Sections were analyzed on the Nikon Eclipse Ti microscope to detect staining and imaged using Nikon DS-Fi2 camera and NIS-Element AR4.13.1 software.

`CN(CCF)c1ccc(-c2ccc3cc(-c4cccnc4)sc3n2)cn1` [Example 57]: the “Staining of aSyn aggregates on PD sections” value (“Staining of aSyn aggregates” for short) in experiment [1] is listed as “++”. In addition, in experiment [2], the “Staining of Aβ plaques on AD sections” value was “+”.
As to `FCCOc1ccc(-c2cc3ccc(-c4ccc(F)nc4)nc3s2)cc1` [Example 12], the “Staining of aSyn aggregates” value in experiment [1] is “+”. The “Staining of Aβ plaques on AD sections” value in experiment [2] is recorded as “++”.
For `CNc1ccc(-c2ccc3cc(-c4cccc(OC)c4O)sc3n2)cn1` [Example 3], the “Staining of aSyn aggregates” value in experiment [1] is “++”. Also, in experiment [2], the “Staining of Aβ plaques on AD sections” value is “++”.
Regarding `Cn1cc(-c2ccc3sc(-c4ccc(N5CC[C@H](F)C5)nc4)nc3c2)cn1` [Example 53], the “Staining of aSyn aggregates” value in experiment [1] was “+”. The “Staining of Aβ plaques on AD sections” value in experiment [2] is “+”.
For `FC1CCN(c2ccc(-c3ccc4cc(-c5cccnc5)sc4n3)cn2)CC1` [Example 48], the “Staining of aSyn aggregates” value in experiment [1] was “++”. The “Staining of Aβ plaques on AD sections” value in experiment [2] is “+”.
In the same order, the values of `COc1ccc(C#Cc2ccc3cc(-c4cccnc4)sc3n2)cc1` [Example 77] are “++” and “++”.
For `CN1CCN(c2ccc3nc(-c4ccc(N5CC[C@@H](F)C5)nc4)sc3c2)C(=O)C1` [Example 70], the “Staining of aSyn aggregates” value in experiment [1] was “+”. The “Staining of Aβ plaques on AD sections” value in experiment [2] is “+”.
Turning to `c1cncc(-c2ccc3nc(-c4ccc(N5CCCC5)nc4)sc3c2)c1` [Example 19], in experiment [1], the “Staining of aSyn aggregates” value was “+++”. Further, the “Staining of Aβ plaques on AD sections” value in experiment [2] is on record as “+++”.
For the molecule `FCCOC1CCN(c2cc3nc(-c4ccc(N5CCCC5)nc4)sc3cn2)CC1` [Example 68], in experiment [1], the “Staining of aSyn aggregates” value is “+”. In experiment [2], the “Staining of Aβ plaques on AD sections” value was “−”.
In the same order, the values of `FCCOC1CCN(c2ccc3cc(-c4cccnc4)sc3n2)CC1` [Example 67] are “+” and “+”.
The like results for `COc1ccc(/C=C/c2ccc3cc(-c4ccc(OCCF)cc4)sc3n2)cc1` [Example 13] were, in that order, “++” and “+++”.
The like results for `CNc1ccc(-c2ccc3cc(-c4cccnc4)sc3n2)cn1` [Example 47] were, in that order, “+++” and “+++”.
Take `Cn1cc(-c2ccc3sc(-c4ccc(N5CC[C@@H](F)C5)nc4)cc3n2)cn1` [Example 51]: in experiment [1], the “Staining of aSyn aggregates” value is given as “++”. Further, the “Staining of Aβ plaques on AD sections” value in experiment [2] was “+”.
`c1ncc(-c2cc3ccc(-c4ccc(N5CCCC5)nc4)nc3s2)cn1` [Example 35]: in experiment [1], the “Staining of aSyn aggregates” value is “++”. Besides, the “Staining of Aβ plaques on AD sections” value in experiment [2] was “++”.
Take `c1cncc(-c2cc3ncc(-c4ccc(N5CCCC5)nc4)cc3s2)c1` [Example 18]: the “Staining of aSyn aggregates” value in experiment [1] is “+++”. Moreover, in experiment [2], the “Staining of Aβ plaques on AD sections” value is on record as “+++”.
On to `FCCOc1ccc(Nc2ccc3cc(-c4cccnc4)sc3n2)cc1` [Example 63], for which the “Staining of aSyn aggregates” value in experiment [1] is “++”. Moreover, the “Staining of Aβ plaques on AD sections” value in experiment [2] is reported as “++”.
Turning to `F[C@@H]1CCN(c2ccc(-c3ccc4sc(-c5cccnc5)cc4n3)cn2)C1` [Example 44], the “Staining of aSyn aggregates” value in experiment [1] is “+”. The “Staining of Aβ plaques on AD sections” value in experiment [2] was “−”.
`O=C1COCCN1c1ccc2nc(-c3ccc(N4CCC[C@@H](F)C4)nc3)sc2c1` [Example 126]: the “Staining of aSyn aggregates” value in experiment [1] is reported as “++”. Moreover, in experiment [2], the “Staining of Aβ plaques on AD sections” value was “++”.
Consider `c1cncc(-c2cc3ccc(Nc4ccc5c(c4)OCCO5)nc3s2)c1` [Example 64], for which the “Staining of aSyn aggregates” value in experiment [1] is recorded as “+”. Also, the “Staining of Aβ plaques on AD sections” value in experiment [2] is “+++”.
As to `CN1CCN(c2ccc3nc(-c4ccc(N5CC[C@H](F)C5)nc4)sc3c2)C(=O)C1` [Example 71], the “Staining of aSyn aggregates” value in experiment [1] is “+”. Moreover, in experiment [2], the “Staining of Aβ plaques on AD sections” value is “−”.
The like results for `c1cncc(-c2ccc3nc(-c4ccc(N5CCCC5)nc4)sc3n2)c1` [Example 38] were, in that order, “+++” and “+++”.
As for `OCCOC1CCN(c2ccc3cc(-c4cccnc4)sc3n2)CC1` [Example 49], in experiment [1], the “Staining of aSyn aggregates” value is given as “++”. The “Staining of Aβ plaques on AD sections” value in experiment [2] is reported as “++”.
Consider `O=C1COCCN1c1ccc2nc(-c3ccc(N4CC[C@H](F)C4)nc3)sc2c1` [Example 73], for which the “Staining of aSyn aggregates” value in experiment [1] is reported as “++”. Further, the “Staining of Aβ plaques on AD sections” value in experiment [2] is “+”.
The like results for `CNc1ccc(-c2cc3ccc(Nc4ccc5c(c4)OCCO5)nc3s2)cc1` [Example 75] were, in that order, “++” and “+++”.
Regarding `Cn1cc(-c2ccc3sc(-c4ccc(N5CCCC5)nc4F)nc3c2)cn1` [Example 42], in experiment [1], the “Staining of aSyn aggregates” value was “+”. Further, in experiment [2], the “Staining of Aβ plaques on AD sections” value is “+”.
Regarding `CNc1ccc(-c2ccc3cc(-c4ccc(F)nc4)sc3n2)cn1` [Example 8], the “Staining of aSyn aggregates” value in experiment [1] is “++”. Also, in experiment [2], the “Staining of Aβ plaques on AD sections” value was “+++”.
For the molecule `c1n[nH]cc1-c1cc2nc(-c3ccc(N4CCCC4)nc3)sc2cn1` [Example 25], in experiment [1], the “Staining of aSyn aggregates” value was “++”. Also, in experiment [2], the “Staining of Aβ plaques on AD sections” value is “+”.
For the molecule `F[C@@H]1CCN(c2ccc(-c3ccc4cc(-c5cccnc5)sc4n3)cn2)C1` [Example 45], in experiment [1], the “Staining of aSyn aggregates” value was “+”. Moreover, the “Staining of Aβ plaques on AD sections” value in experiment [2] was “++”.
Consider `c1cncc(-c2cc3ccc(-c4ccc(N5CCCC5)nc4)nc3s2)c1` [Example 32], for which the “Staining of aSyn aggregates” value in experiment [1] was “+++”. In addition, in experiment [2], the “Staining of Aβ plaques on AD sections” value is “+++”.
On to `c1cncc(-c2cc3ccc(Nc4ccc(N5CCOCC5)nc4)nc3s2)c1` [Example 66], for which the “Staining of aSyn aggregates” value in experiment [1] is on record as “+”. In experiment [2], the “Staining of Aβ plaques on AD sections” value is “++”.
In the same order, the values of `F[C@@H]1CCN(c2ccc(-c3cc4nc(-c5cccnc5)ccc4s3)cn2)C1` [Example 46] are “+” and “+”.
The like results for `c1cncc(-c2cnc3sc(-c4ccc(N5CCCC5)nc4)nc3c2)c1` [Example 23] were, in that order, “++” and “+”.
In the same order, the values of `CNc1ccc(-c2ccc3cc(-c4ccnc(OC)c4)sc3n2)cc1` [Example 31] are “+” and “++”.
Consider `FCCn1cc(-c2cc3nc(-c4ccc(N5CCCC5)nc4)sc3cn2)cn1` [Example 79], for which the “Staining of aSyn aggregates” value in experiment [1] is reported as “+”. Also, the “Staining of Aβ plaques on AD sections” value in experiment [2] was “+”.
Turning to `O=C1c2sc(-c3ccc(N4CCCC4)nc3)nc2CCN1CCF` [Example 78], the “Staining of aSyn aggregates” value in experiment [1] is given as “+”. The “Staining of Aβ plaques on AD sections” value in experiment [2] was “+”.
As to `Cn1cc(-c2ccc3sc(-c4ccc(N5CCCC5)nc4)nc3c2)cn1` [Example 20], the “Staining of aSyn aggregates” value in experiment [1] is given as “+”. Further, in experiment [2], the “Staining of Aβ plaques on AD sections” value was “−”.
In the same order, the values of `CN(C)c1ccc(-c2ccc3cc(-c4ccc(N(C)C)nc4)sc3n2)cn1` [Example 37] are “++” and “+”.
